Where two headings read alike, the source gives them in different places.
Assays:
[1] = test system: spontaneously contracting neonatal cardiomyocytes; experiment: Cardiomyocyte contraction bioassay: chronotropic response to patient IgG after preincubation with receptor loop peptides; type: cell-based, rat; settings: IgG from three AD/vascular dementia patients preincubated 1 hour at 4° C. with 1 μg peptide per 1 μg IgG protein
Method: Cultures of neonatal cardiomyocytes were prepared from new-born, one to three days old rats essentially as described in [15]. Chinese hamster ovary cells stably transfected with the A-isoform of the human α1-AR (CHO-α1) were grown in F12 HAM medium supplemented with glutamine, 10% FCS and 1% penicillin streptomycin at 37° C. and 5% CO2.
Functional autoantibodies were detected utilizing the chronotropic responses of cultivated spontaneously contracting neonatal cardiomyocytes. For monitoring the contraction rate of neonatal cardiomyocytes a standardized bioassay based on computer-assisted recording of the contraction rate was employed.
Immunoglobulin (IgG) fractions from serum samples were prepared according to a standard procedure as described in [6]. Patients IgG were added to cultures of neonatal cardiomyocytes to a final dilution of 1:40. After incubation at 37° C. for 60 minutes, the pulsation rate was measured. A total of up to 30 cells or cell clusters for each sample of a given immunoglobulin fraction was analysed. The chronotropic response to the exposition to patient IgG compared to preceding control recordings is given as increases in the number of contractions per minute. Identification of the target GPCR type was performed using specific receptor antagonists, 10^-7 M prazosin to block the α1-AR and 10^-7 M ICI […] for the β2-AR.
For mapping of the target site of agonistic autoantibodies on the receptor, IgG fractions were preincubated for 1 hour at 4° C. with an excess of synthetic peptides corresponding to amino acid sequences of the extracellular loop1 (LGYWAFGRVFCN) or the extracellular loop2 (PAPEDETICQINEE) of the human α1-AR (1 μg peptide per 1 μg IgG protein).

[2] = biological target: patient IgG (agAAB to the α1-AR); experiment: ELISA competition of patient IgG binding to the immobilized peptide by free α1-AR loop1 peptide; parameters: species or system human; settings: free peptide 0.3 nM up to 5 μM, patient IgG preincubated with free peptide 15 minutes, nonlinear regression, read-out: EC50 value, competition of IgG binding to the immobilized peptide by soluble α1-AR loop 1 peptide
Method: Shown are data from representative experiments run in triplicates. Values are corrected for unspecific binding. A: Dependence of antibody binding on patient IgG protein. The given amount of IgG protein refers to 100 μl reaction volume (□) binding in the presence of 0.15 M NaCl; (●) binding in the presence of 0.5 M NaCl. B: Time-dependence of antibody binding. C: Competition of binding by increasing concentrations of the free α1-AR loop1 peptide. Concentrations of the free peptide ranged from 0.3 nM to 5.0 μM. The patient IgG was preincubated with the free peptide in solution for 15 minutes.
The binding of agonistic IgG preparations was characterized using standard ELISA techniques. Briefly, biotinylated peptides corresponding to either the first or the second extracellular loop of the human α1A-AR were coupled to pre-blocked streptavidin-coated 96-well plates (Pierce). All experimental steps were performed at room temperature. If not indicated otherwise, 5 μg of IgG protein was used and the incubation time was 30 minutes. As secondary antibody anti-human horseradish conjugated anti-IgG was used. The antibody binding was visualized by the 1-Step Ultra TMB ELISA (Thermo Scientific). The optical density was quantified at 450 nm using a SLT Spectra multiplate reader (TECAN).

[3] = biological target: T1, A-isoform of the human α1-AR (CHO-α1) (Homo sapiens, UniProt P35348); experiment: Intracellular calcium (Cai) mobilization in CHO-α1 cells; type: cell-based
T1 construct: expressed in transfected cells; host or cells: CHO (Chinese hamster ovary) cells, stably transfected
T1 sequence (P35348 1-466): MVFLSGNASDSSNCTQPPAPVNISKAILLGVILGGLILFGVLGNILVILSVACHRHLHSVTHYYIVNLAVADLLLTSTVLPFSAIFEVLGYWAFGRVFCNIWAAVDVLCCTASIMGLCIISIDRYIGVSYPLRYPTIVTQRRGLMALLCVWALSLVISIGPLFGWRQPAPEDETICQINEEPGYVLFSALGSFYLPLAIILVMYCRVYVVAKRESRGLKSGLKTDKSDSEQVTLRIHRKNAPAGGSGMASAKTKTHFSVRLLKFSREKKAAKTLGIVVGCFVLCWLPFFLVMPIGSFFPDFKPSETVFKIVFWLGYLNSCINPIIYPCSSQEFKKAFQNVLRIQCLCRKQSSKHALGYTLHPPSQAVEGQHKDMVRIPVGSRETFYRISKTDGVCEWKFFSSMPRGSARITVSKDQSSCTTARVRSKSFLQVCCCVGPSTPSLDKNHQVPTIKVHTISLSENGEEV
Method: The data represent mean values of independent measurements of three individual cell populations. A: Time dependence of Cai mobilization by patient IgG compared to the α1-AR agonist phenylephrine (PE). The addition of patient IgG preparation and PE is indicated by the arrow. The additions were (▴) 2.5 μg patient IgG; (▪) 5 μg patient IgG; (●) 5 μM PE. B: Effect of 5 μg human control IgG (Δ) and 5 μg patient IgG (♦) on Cai mobilization. The addition of IgG preparations is indicated by the arrow. C: Inhibitory effect of preincubation of patient IgG with the free α1-AR loop1 peptide. Patient IgG was preincubated with 0.25 μM peptide for 15 minutes before addition to the cells. Peak values (five of each individual measurement) were taken for assessing the decrement in Cai mobilization. […]
The potential of patients IgG fractions to mobilise intracellular calcium (Cai) was assessed using Chinese hamster ovary cells stably transfected with the A-isoform of the human α1-AR (CHO-α1). The cells were trypsinized and plated on black clear bottom 96-well plates suited for fluorescence measurements (Greiner) at a density of 30 000 cells per well. […] Cai was measured on a Perkin Elmer Victor X2 fluorescence multiplate reader equipped with an injector unit. The cells were excited at wave lengths alternating between 340 nm and 380 nm and the fluorescence signal emitted at 510 nm was recorded. […]

| Effect of peptide preincubation on chronotropic response to patient IgG [1] | Effect of peptide preincubation on chronotropic response to patient IgG ([1]; listed as L1 peptide) | EC50 ([2]; listed as extracellular loop1 peptide) | EC50 ([2]; listed as α1-AR loop 1 peptide) | Effect of the peptide itself on Cai ([3]; CHO-α1 cells, peptide alone) | Effect of peptide preincubation on elevation of Cai by patient IgG ([3]; patient IgG preincubated with 0.25 μM peptide for 15 minutes, p<0.01) | Sequence |
| --- | --- | --- | --- | --- | --- | --- |
| nearly abolished | abolished | 30 nM | ~30 nM | no effect | reduced significantly | LGYWAFGRVFCN [loop1 peptide, synthetic peptide corresponding to extracellular loop1 of the human α1-AR] |
| did not affect | – | – | – | – | – | PAPEDETICQINEE (listed as Homo sapiens) [loop2 peptide, synthetic peptide corresponding to extracellular loop2 of the human α1-AR] |
